Laboratory results from patent US20260048046A1, “METHOD FOR IMPROVING GROWTH PERFORMANCE IN FEEDLOT CATTLE” (Elanco US Inc., priority 2022, published 2026).

System: beef feedlot cattle
Experiment: 56-d study: growth performance
Format: in vivo
Parameters: Average daily dry matter (DMI) / Average daily dry matter (DMI), difference from control: unit not given here
Conditions: for Average daily dry matter (DMI) / Average daily gain (ADG) / Gain:feed, ADG:DMI / Final BW: 56 d treatment, steers, LS mean; for Final BW: initial weight as covariate
Method: This example describes a randomized complete block study that evaluated LUB dose (0, 1.5, 3.5, and 5.5 mg kg^−1 dry matter) during the last 56 d of the feeding period on live weight, carcass weight, and associated ratios in beef feedlot cattle. Carcass characteristics, mobility, and health were also evaluated. All cattle received monensin and tylosin throughout the study.
A randomized complete block design was used to evaluate the effects of LUB on calculated growth performance of 2,880 British and Continental European crossbred steers typical for U.S. feedlots. Bos indicus breeding was limited to less than ⅛. The study evaluated four
LUB doses: 0 (control, CON), 1.5, 3.5, and 5.5 mg·kg^−1 DM. There were 12 blocks, each block containing four replicate pens that started LUB feeding on the same date. Steers were randomized within each block of four pens with 60 steers per pen, resulting in a total of 720 steers enrolled in each treatment. LUB feeding started on Jun. 24, 2018, Jul. 1, 2018, and Jul. 15, 2018, four blocks on each date.
Beginning no later than approximately d −70, animals were fed a diet containing Rumensin (monensin 46.3 mg·kg^−1 100% DM basis; Elanco, Greenfield, IN, USA) and Tylan (tylosin 8.9 mg·kg^−1 100% DM basis; Elanco) ad libitum. Cattle in the LUB treatments were switched from the basal finishing ration to the finishing ration containing the appropriate concentrations of LUB Type A premix at the start of the treatment period (d −57). Table 5 lists the composition and the formulated nutrient composition of the finishing diet. The diet was designed to meet or exceed the minimum nutrient requirements cited in Nutrient Requirements of Beef Cattle (NASEM, 2016). LUB was delivered to the cattle using a 1% LUB Type A premix prepared and delivered by Elanco (Clinton Laboratories, Clinton, IN, USA), and the ration was prepared on-site at the research facility. The 1% Type A premix was delivered into the ration by flushing the 1% Type A premix through a micro-ingredient machine (Micro Technologies, Amarillo, TX) with water, which was included at approximately 27 kg of the “as-fed” ration, for each 3,629 kg batch. The 1% Type A premix was included in the finishing ration at 0, 0.0154%, 0.0353%, or 0.0551% (100% DM) to provide CON, 1.5, 3.5, or 5.5 mg·kg^−1 LUB (100% DM). The on-site feed mixers used to mix (stationary horizontal paddle mixer [Cactus Varied Industries, Amarillo, TX, USA]) and deliver (Roto-Mix 490-14 and Roto-Mix 620-16, Roto-Mix LLC, Dodge City, KS) the Type C feed were qualified to confirm that the ration could be mixed homogeneously before feeding medicated feed. Cattle were fed in order of CON, 1.5, 3.5, or 5.5 mg·kg^−1 doses of LUB. Prior to mixing the CON batches, the mixer was flushed with appropriate amount of non-medicated feed or other cattle feed to assure no carryover of test compound. Feed was issued three times each day at approximately the same time each day. Bunk calls were made at the time of first feeding and amount of feed issued for the third feeding was adjusted based on daily bunk calls according to site procedures. The feeding goal was to have slick bunks prior to the first feeding and approximately ⅓ of the cattle at the bunk, ⅓ of the cattle moving to the bunk, and ⅓ of the cattle not moving to the bunk at time of first feeding. Water was available ad libitum throughout the study. The weight of feed issued was recorded and electronic feed records were provided for data analysis.
Animals were weighed individually at the time of randomization (approximately d −69 to d −66) and this weight was used to exclude steers with extreme BW from the trial. All other BW (unshrunk) were collected by pen and used for calculation of growth performance. Scheduled pen weights were taken prior to feed delivery and collected on d −59 (2 d before treatment start, which was considered the treatment start weight) and d 0 (1 d after the end of treatment, which was considered the treatment end weight). […]

[1] = steers fed LUB (doses pooled), 56 d

Structure (SMILES): CC(C)(Cc1ccc(Oc2ncccc2C#N)cc1)NC[C@H](O)COc1ccccc1-c1cccs1 [LUB, 2-{4-[2-({(2S)-2-Hydroxy-3-[2-(2-thienyl)phenoxy]propyl}amino)-2-methylpropyl]phenoxy}nicotinonitrile]
- Average daily dry matter (DMI), difference from control (1.5 mg·kg^−1 vs. control, 56 d): 0.2
- Average daily dry matter (DMI), percent change from Control (1.5 mg·kg^−1 vs. control, 56 d): 2.0%
- Average daily gain (ADG), difference from control (1.5 mg·kg^−1 vs. control, 56 d): 0.19 kg
- Average daily gain (ADG), percent change from Control (1.5 mg·kg^−1 vs. control, 56 d): 11.3%
- Final BW, difference from control (1.5 mg·kg^−1 vs. control, 56 d): 11.6 kg
- Final BW, percent change from Control (1.5 mg·kg^−1 vs. control, 56 d): 1.7%
- Gain:feed, ADG:DMI, difference from control (1.5 mg·kg^−1 vs. control, 56 d): 0.015
- Gain:feed, ADG:DMI, percent change from Control (1.5 mg·kg^−1 vs. control, 56 d): 9.0%
- Average daily dry matter (DMI), difference from control (3.5 mg·kg^−1 vs. control, 56 d): 0.3
- Average daily dry matter (DMI), percent change from Control (3.5 mg·kg^−1 vs. control, 56 d): 3.0%
- Average daily gain (ADG), difference from control (3.5 mg·kg^−1 vs. control, 56 d): 0.26 kg
- Average daily gain (ADG), percent change from Control (3.5 mg·kg^−1 vs. control, 56 d): 15.5%
- Final BW, difference from control (3.5 mg·kg^−1 vs. control, 56 d): 15.7 kg
- Final BW, percent change from Control (3.5 mg·kg^−1 vs. control, 56 d): 2.4%
- Gain:feed, ADG:DMI, difference from control (3.5 mg·kg^−1 vs. control, 56 d): 0.028
- Gain:feed, ADG:DMI, percent change from Control (3.5 mg·kg^−1 vs. control, 56 d): 12.0%
- Average daily dry matter (DMI), difference from control (5.5 mg·kg^−1 vs. control, 56 d): 0.2
- Average daily dry matter (DMI), percent change from Control (5.5 mg·kg^−1 vs. control, 56 d): 2.0%
- Average daily gain (ADG), difference from control (5.5 mg·kg^−1 vs. control, 56 d): 0.24 kg
- Average daily gain (ADG), percent change from Control (5.5 mg·kg^−1 vs. control, 56 d): 14.3%
- Final BW, difference from control (5.5 mg·kg^−1 vs. control, 56 d): 14.3 kg
- Final BW, percent change from Control (5.5 mg·kg^−1 vs. control, 56 d): 2.1%
- Gain:feed, ADG:DMI, difference from control (5.5 mg·kg^−1 vs. control, 56 d): 0.019
- Gain:feed, ADG:DMI, percent change from Control (5.5 mg·kg^−1 vs. control, 56 d): 11.4%
- Average daily dry matter (DMI) (LUB 1.5 mg·kg^−1 DM): 10.3
- Average daily gain (ADG) (LUB 1.5 mg·kg^−1 DM): 1.87 kg
- Gain:feed, ADG:DMI (LUB 1.5 mg·kg^−1 DM): 0.182
- Final BW (LUB 1.5 mg·kg^−1 DM): 679.0 kg
- Average daily dry matter (DMI) (LUB 3.5 mg·kg^−1 DM): 10.4
- Average daily gain (ADG) (LUB 3.5 mg·kg^−1 DM): 1.94 kg
- Gain:feed, ADG:DMI (LUB 3.5 mg·kg^−1 DM): 0.187
- Final BW (LUB 3.5 mg·kg^−1 DM): 683.1 kg
- Average daily dry matter (DMI) (LUB 5.5 mg·kg^−1 DM): 10.3
- Average daily gain (ADG) (LUB 5.5 mg·kg^−1 DM): 1.92 kg
- Gain:feed, ADG:DMI (LUB 5.5 mg·kg^−1 DM): 0.186
- Final BW (LUB 5.5 mg·kg^−1 DM): 681.7 kg
- Average daily gain [1]: 1.91 kg
- Average daily gain greater than control [1]: 13.7%
- Gain efficiency [1]: 0.185
- Gain efficiency greater than control [1]: 10.8%
- Daily dry matter intake greater than control (steers that received LUB (doses pooled), 56 d): 2.3%
